Laboratory results as given in ChEMBL document CHEMBL5316263, “Structure-Based Discovery of Selective Histone Deacetylase 8 Degraders with Potent Anticancer Activity” (J Med Chem, 2023).
pEC50: −log10 of the molar value. The source made the active and inactive calls. The rule behind the calls is not given here.

How the values were obtained:
[1] = molecular target: T1, von Hippel-Lindau disease tumor suppressor/Histone deacetylase 8 (Homo sapiens) (UniProt Q9BY41+P40337); assay: Protac activity at VHL/HDAC8 in human A549 cells assessed as degradation of HDAC8 at 200 nM measured after 20 hrs by Western blot analysis relative to control; format: cell-based
T1 sequence (P40337 whole entry, looked up): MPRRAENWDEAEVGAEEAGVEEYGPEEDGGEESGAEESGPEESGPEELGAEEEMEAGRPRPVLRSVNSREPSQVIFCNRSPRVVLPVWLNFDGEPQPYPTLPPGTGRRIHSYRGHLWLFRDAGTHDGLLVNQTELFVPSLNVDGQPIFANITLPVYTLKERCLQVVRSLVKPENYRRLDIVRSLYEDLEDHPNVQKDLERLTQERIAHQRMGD
T1 sequence (Q9BY41 whole entry, looked up): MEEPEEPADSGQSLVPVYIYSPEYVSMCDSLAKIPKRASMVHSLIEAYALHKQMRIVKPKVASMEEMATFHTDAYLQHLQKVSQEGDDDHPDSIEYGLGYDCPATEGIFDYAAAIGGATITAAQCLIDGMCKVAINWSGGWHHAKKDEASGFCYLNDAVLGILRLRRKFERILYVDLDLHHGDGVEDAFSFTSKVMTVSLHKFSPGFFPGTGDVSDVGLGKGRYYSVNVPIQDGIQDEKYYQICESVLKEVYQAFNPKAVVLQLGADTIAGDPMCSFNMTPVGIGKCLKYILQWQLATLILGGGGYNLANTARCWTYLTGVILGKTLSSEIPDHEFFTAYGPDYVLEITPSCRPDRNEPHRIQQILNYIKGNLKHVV

[2] = molecular target: von Hippel-Lindau disease tumor suppressor/Histone deacetylase 1 (Homo sapiens) (UniProt Q13547+P40337); assay: Protac activity at VHL/HDAC1 in human A549 cells assessed as degradation of HDAC1 at 0.1 to 10 uM by Western blot analysis; format: cell-based; details: dose 0.1-10 µM
Sequence of von Hippel-Lindau disease tumor suppressor/Histone deacetylase 1 (Homo sapiens) (P40337 whole entry, looked up): as the sequence (P40337 whole entry, looked up) above
Sequence of von Hippel-Lindau disease tumor suppressor/Histone deacetylase 1 (Homo sapiens) (Q13547 whole entry, looked up): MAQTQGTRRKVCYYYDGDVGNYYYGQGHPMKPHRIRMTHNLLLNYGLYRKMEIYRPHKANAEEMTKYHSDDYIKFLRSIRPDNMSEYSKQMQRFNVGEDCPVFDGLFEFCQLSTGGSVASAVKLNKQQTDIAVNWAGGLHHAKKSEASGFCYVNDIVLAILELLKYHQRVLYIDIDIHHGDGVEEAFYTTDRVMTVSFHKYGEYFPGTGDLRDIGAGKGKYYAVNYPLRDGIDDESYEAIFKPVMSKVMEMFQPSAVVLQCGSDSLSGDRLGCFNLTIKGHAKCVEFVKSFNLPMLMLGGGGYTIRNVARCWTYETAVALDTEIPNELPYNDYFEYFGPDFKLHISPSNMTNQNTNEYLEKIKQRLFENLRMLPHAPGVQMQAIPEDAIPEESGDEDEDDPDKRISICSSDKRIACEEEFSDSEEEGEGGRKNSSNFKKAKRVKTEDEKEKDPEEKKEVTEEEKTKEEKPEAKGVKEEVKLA

[3] = molecular target: von Hippel-Lindau disease tumor suppressor/Histone deacetylase 3 (Homo sapiens) (UniProt O15379+P40337); assay: Protac activity at VHL/HDAC3 in human A549 cells assessed as degradation of HDAC3 at 0.1 to 10 uM by Western blot analysis; format: cell-based; details: dose 0.1-10 µM
Sequence of von Hippel-Lindau disease tumor suppressor/Histone deacetylase 3 (Homo sapiens) (O15379 whole entry, looked up): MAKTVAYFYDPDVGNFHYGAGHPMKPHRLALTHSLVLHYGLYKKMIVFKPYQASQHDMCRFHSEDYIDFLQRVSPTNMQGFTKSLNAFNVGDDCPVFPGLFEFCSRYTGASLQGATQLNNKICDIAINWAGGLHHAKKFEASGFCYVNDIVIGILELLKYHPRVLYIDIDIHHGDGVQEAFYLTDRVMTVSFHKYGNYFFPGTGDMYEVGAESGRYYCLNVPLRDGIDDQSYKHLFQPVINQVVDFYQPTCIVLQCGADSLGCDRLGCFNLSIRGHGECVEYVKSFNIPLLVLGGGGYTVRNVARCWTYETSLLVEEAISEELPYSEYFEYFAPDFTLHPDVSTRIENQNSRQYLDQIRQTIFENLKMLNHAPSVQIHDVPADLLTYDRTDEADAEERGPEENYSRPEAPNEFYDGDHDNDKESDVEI
Sequence of von Hippel-Lindau disease tumor suppressor/Histone deacetylase 3 (Homo sapiens) (P40337 whole entry, looked up): as the sequence (P40337 whole entry, looked up) above

A549 = assay: Inhibition of colony formation in human A549 cells assessed as reduction in cell proliferation at 2.5 to 10 uM measured after 7 to 10 days with media replenishment along with compound for every 3 days by crystal violet staining based analysis; format: functional; details: dose 2.5-10 µM, time 7-10 day
[4] = molecular target: T1, von Hippel-Lindau disease tumor suppressor/Histone deacetylase 8 (Homo sapiens); assay: Protac activity at VHL/HDAC8 in human A549 cells assessed as degradation of HDAC8 at 2 uM measured after 20 hrs by Western blot analysis relative to control; format: cell-based
HCT-116 = assay: Inhibition of colony formation in human HCT-116 cells assessed as reduction in cell proliferation at 2.5 to 10 uM measured after 7 to 10 days with media replenishment along with compound for every 3 days by crystal violet staining based analysis; format: functional; details: dose 2.5-10 µM, time 7-10 day
[5] = molecular target: T1, von Hippel-Lindau disease tumor suppressor/Histone deacetylase 8 (Homo sapiens); assay: Protac activity at VHL/HDAC8 in human A549 cells assessed as degradation of HDAC8 by Western blot analysis; format: cell-based; details: dose 0.1-10 µM
[6] = molecular target: von Hippel-Lindau disease tumor suppressor/Histone deacetylase 2 (Homo sapiens) (UniProt Q92769+P40337); assay: Protac activity at VHL/HDAC2 in human A549 cells assessed as degradation of HDAC2 at 0.1 to 10 uM by Western blot analysis; format: cell-based; details: dose 0.1-10 µM
Sequence of von Hippel-Lindau disease tumor suppressor/Histone deacetylase 2 (Homo sapiens) (P40337 whole entry, looked up): as above
Sequence of von Hippel-Lindau disease tumor suppressor/Histone deacetylase 2 (Homo sapiens) (Q92769 whole entry, looked up): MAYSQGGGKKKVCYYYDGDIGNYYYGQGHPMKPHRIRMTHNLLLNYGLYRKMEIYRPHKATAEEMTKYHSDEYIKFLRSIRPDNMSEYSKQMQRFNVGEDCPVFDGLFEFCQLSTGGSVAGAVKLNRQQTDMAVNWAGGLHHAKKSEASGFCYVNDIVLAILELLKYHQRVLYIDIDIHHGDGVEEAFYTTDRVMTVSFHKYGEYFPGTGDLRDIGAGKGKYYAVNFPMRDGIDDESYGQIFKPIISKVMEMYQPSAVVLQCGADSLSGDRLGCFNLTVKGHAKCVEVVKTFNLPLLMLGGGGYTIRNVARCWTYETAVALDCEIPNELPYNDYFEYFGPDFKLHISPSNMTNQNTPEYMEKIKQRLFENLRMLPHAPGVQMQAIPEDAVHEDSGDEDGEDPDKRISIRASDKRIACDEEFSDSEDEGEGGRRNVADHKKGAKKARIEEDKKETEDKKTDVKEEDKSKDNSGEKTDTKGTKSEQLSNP

[7] = molecular target: T2, Protein cereblon/Histone deacetylase 8 (Homo sapiens) (UniProt Q9BY41+Q96SW2); assay: Protac activity at CRBN/HDAC8 in human A549 cells assessed as degradation of HDAC8 at 2 uM measured after 20 hrs by Western blot analysis relative to control; format: cell-based
T2 sequence (Q96SW2 whole entry, looked up): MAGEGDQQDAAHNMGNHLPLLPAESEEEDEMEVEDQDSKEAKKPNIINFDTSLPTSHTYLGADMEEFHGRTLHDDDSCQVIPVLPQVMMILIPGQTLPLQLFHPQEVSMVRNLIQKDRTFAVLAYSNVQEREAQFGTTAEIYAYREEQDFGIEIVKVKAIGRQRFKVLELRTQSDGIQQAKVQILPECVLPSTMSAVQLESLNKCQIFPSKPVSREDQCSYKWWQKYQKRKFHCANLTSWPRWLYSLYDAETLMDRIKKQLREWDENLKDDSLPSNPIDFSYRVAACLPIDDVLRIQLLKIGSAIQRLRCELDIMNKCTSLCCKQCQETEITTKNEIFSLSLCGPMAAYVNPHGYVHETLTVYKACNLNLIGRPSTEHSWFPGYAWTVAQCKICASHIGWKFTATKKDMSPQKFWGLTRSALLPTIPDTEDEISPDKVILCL
T2 sequence (Q9BY41 whole entry, looked up): as the sequence (Q9BY41 whole entry, looked up) above

[8] = molecular target: T2, Protein cereblon/Histone deacetylase 8 (Homo sapiens); assay: Protac activity at CRBN/HDAC8 in human A549 cells assessed as degradation of HDAC8 at 200 nM measured after 20 hrs by Western blot analysis relative to control; format: cell-based
[9] = molecular target: Protein cereblon/Histone deacetylase 8 (Homo sapiens, UniProt Q96SW2+Q9BY41); assay: Protac activity at CRBN/HDAC8 in human A549 cells assessed as degradation of HDAC8 incubated for 20 hrs by ELISA method; format: cell-based
Sequence of Protein cereblon/Histone deacetylase 8 (Q9BY41 whole entry): as the sequence (Q9BY41 whole entry, looked up) above
Sequence of Protein cereblon/Histone deacetylase 8 (Q96SW2 whole entry): as the sequence (Q96SW2 whole entry, looked up) above

SMILES | Activity [1] [%] | Activity [4] [%] | Activity [7] [%] | Activity [8] [%] | further results
Cc1ncsc1-c1ccc([C@H](C)NC(=O)[C@@H]2C[C@@H](O)CN2C(=O)[C@@H](NC(=O)COCCOc2ccc(Cn3ccc4ccc(C(=O)NO)cc43)cc2)C(C)(C)C)cc1 | 45.7 | 91.3 |  |  | Activity [2]: inactive; Activity [3]: inactive; inhibition (A549): Active; inhibition (HCT-116): Active; Activity [5]: Active; Activity [6]: inactive
Cc1ncsc1-c1ccc([C@H](C)NC(=O)[C@@H]2C[C@@H](O)CN2C(=O)[C@@H](NC(=O)COCCOCCOCCOCCOc2ccc(Cn3ccc4ccc(C(=O)NO)cc43)cc2)C(C)(C)C)cc1 | 28.6 | 72.9 |  |  | 
Cc1ncsc1-c1ccc([C@H](C)NC(=O)[C@@H]2C[C@@H](O)CN2C(=O)[C@@H](NC(=O)COCCOCCOc2ccc(Cn3ccc4ccc(C(=O)NO)cc43)cc2)C(C)(C)C)cc1 | 31.3 | 75.3 |  |  | 
O=C1CCC(N2C(=O)c3cccc(NCc4cn(CCOCCOCCOc5ccc(Cn6ccc7ccc(C(=O)NO)cc76)cc5)nn4)c3C2=O)C(=O)N1 (stereo not given) |  |  | 70.8 | 42.5 | 
Cc1ncsc1-c1ccc([C@H](C)NC(=O)[C@@H]2C[C@@H](O)CN2C(=O)[C@@H](NC(=O)CCCCCCOc2ccc(Cn3ccc4ccc(C(=O)NO)cc43)cc2)C(C)(C)C)cc1 | 29.8 | 73.6 |  |  | 
O=C1CCC(N2C(=O)c3cccc(NCCc4cn(CCOCCOc5ccc(Cn6ccc7ccc(C(=O)NO)cc76)cc5)nn4)c3C2=O)C(=O)N1 (stereo not given) |  |  | 71.2 | 29.4 | 
Cc1ncsc1-c1ccc([C@H](C)NC(=O)[C@@H]2C[C@@H](O)CN2C(=O)[C@@H](NC(=O)CCCOc2ccc(Cn3ccc4ccc(C(=O)NO)cc43)cc2)C(C)(C)C)cc1 | 15.9 | 26.4 |  |  | 
O=C1CCC(N2C(=O)c3cccc(NCc4cn(CCCCCCOc5ccc(Cn6ccc7ccc(C(=O)NO)cc76)cc5)nn4)c3C2=O)C(=O)N1 (stereo not given) |  |  | 59.7 | 28.5 | pEC50 [9]: 6.24
Cc1ncsc1-c1ccc([C@H](C)NC(=O)[C@@H]2C[C@@H](O)CN2C(=O)[C@@H](NC(=O)COCCOCCOCCOc2ccc(Cn3ccc4ccc(C(=O)NO)cc43)cc2)C(C)(C)C)cc1 | 26.7 | 50.2 |  |  | 
